Experimental findings from patent US20230365488A1, “TRUXILLIC ACID MONOESTER-DERIVATIVES AS SELECTIVE FABP5 INHIBITORS AND PHARMACEUTICAL COMPOSITIONS AND USES THEREOF” (The Research Foundation for The State University of New York, priority 2020, published 2023) are described below.

In one data set the target is FABP3 (Homo sapiens (Human), UniProt P05413). Nature of the data set: FABP3 fluorescent probe displacement binding assay. The settings on record: average ± S.E. of at least three independent experiments.
The nature of data set [1]: MTT cytotoxicity, RWPE-1 (Example 6). It counts as cell-based. The settings on record: human, RWPE-1 cells (normal prostate cell line), 72-hour incubation.
Data set [2] can be described thus: MTT cytotoxicity, WI-38 (Example 6). The settings on record: human, WI-38 cells (normal lung cell line), 72-hour incubation. It counts as cell-based.
A further data set has as its target FABP7 (Homo sapiens (Human), UniProt O15540). Nature of the data set: FABP7 fluorescent probe displacement binding assay. The settings on record: average ± S.E. of at least three independent experiments.
A further data set deals with PC3 cells. Nature of the data set: MTT cytotoxicity and taxane combination (CI) analysis, PC3 (Example 6). The data set is classed as cell-based, human. The settings on record: for IC50: Homo sapiens, PC-3, MTT, 72-hour incubation, single agent; for CI value / Fa value / Relationship: PC3, 1y 7.5 μM or 1w 1.0 μM; for cytotoxicity of combination with docetaxel or cabazitaxel versus each drug administered independently: PC3 cells.

For a further data set, the system named is 22Rv1 cells. As to the kind of experiment: MTT cytotoxicity and taxane combination (CI) analysis, 22Rv1 (Example 6). The data set is classed as cell-based, human. The conditions noted are these: for CI value / Fa value / Relationship / IC50: 22Rv1; for CI value / Fa value / Relationship: 1y 7.5 μM or 1w 1.0 μM; for cytotoxicity of combination with docetaxel or cabazitaxel versus each drug administered independently: 22Rv1 cells; for IC50: Homo sapiens, MTT, 72-hour incubation, single agent.

For data set [3], the system named is PC3 cells implanted subcutaneously. As to the kind of experiment: Subcutaneous PC3 tumor growth in nude mice. It counts as in vivo, male BALB/c nude mice. The settings on record: for tumor growth: ip.
The next data set addresses FABP5 (Homo sapiens (Human), UniProt Q01469). Nature of the data set: FABP5 fluorescent probe displacement binding assay. The settings on record: for Ki: average ± S.E. of at least three independent experiments; for FABP3 Ki/FABP5 Ki: selectivity ratio FABP3 over FABP5.
Data set [4] deals with WI-38 (human normal lung fibroblast) cells. Nature of the data set: Cytotoxicity (MTT) assay, WI-38 (Example 5). It counts as cell-based. The settings on record: 72-hour incubation, 1% FBS.
Data set [5] deals with PC-3 (human metastatic prostate cancer) cells. Nature of the data set: Cytotoxicity (MTT) assay, PC-3 (Example 5). The data set is classed as cell-based. The conditions noted are these: 72-hour incubation, 1% FBS, read-out: PC3 IC50.
The test system of data set [6] is HepG2 (human liver cancer) cells. Nature of the data set: Cytotoxicity (MTT) assay, HepG2 (Example 5). The conditions noted are these: 72-hour incubation, 1% FBS. It counts as cell-based.
The next data set deals with DU-145 cells. Nature of the data set: MTT cytotoxicity and taxane combination (CI) analysis, DU-145 (Example 6). It counts as cell-based, human. The conditions noted are these: for CI value / Fa value / Relationship: 1y 7.5 μM or 1w 1.0 μM.
The mark [7] stands for this setting: combination with cabazitaxel 0.03 nM.
Where [8] appears, read: combination with cabazitaxel 0.3 nM.
The mark [9] stands for this setting: combination with cabazitaxel 3.0 nM.
Setting [10] is: combination with docetaxel 0.03 nM.
[11] abbreviates: combination with docetaxel 0.3 nM.
Setting [12] is: combination with docetaxel 3.0 nM.
Setting [13] is: 20 mg/kg, once daily, from day 15, versus vehicle.
Where [14] appears, read: DU-145, combination with cabazitaxel 0.03 nM.
Where [15] appears, read: DU-145, combination with cabazitaxel 0.3 nM.
The mark [16] stands for this setting: DU-145, combination with cabazitaxel 3.0 nM.
Where [17] appears, read: DU-145, combination with docetaxel 0.03 nM.
The mark [18] stands for this setting: DU-145, combination with docetaxel 0.3 nM.
[19] abbreviates: DU-145, combination with docetaxel 3.0 nM.

Usually Ki stands for a measure of affinity in units of concentration, obtained from inhibition or displacement. A higher Ki goes with weaker binding. As a reminder, the IC50 is the concentration that gives 50% inhibition.

FABP5, sequence (Q01469 whole entry): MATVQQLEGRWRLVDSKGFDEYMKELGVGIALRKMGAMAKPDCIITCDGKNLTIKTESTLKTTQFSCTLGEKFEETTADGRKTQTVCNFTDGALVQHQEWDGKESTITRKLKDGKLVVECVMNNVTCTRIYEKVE
FABP7, sequence (O15540 whole entry): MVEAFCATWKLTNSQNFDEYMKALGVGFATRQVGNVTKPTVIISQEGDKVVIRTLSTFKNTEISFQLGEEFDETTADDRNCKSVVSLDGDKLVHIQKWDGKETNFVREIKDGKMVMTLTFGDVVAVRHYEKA
FABP3, sequence (P05413 whole entry): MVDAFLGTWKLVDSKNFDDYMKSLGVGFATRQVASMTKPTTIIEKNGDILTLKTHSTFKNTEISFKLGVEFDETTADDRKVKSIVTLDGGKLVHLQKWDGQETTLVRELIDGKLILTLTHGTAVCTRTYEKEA

As for `COc1ccccc1[C@H]1[C@H](C(=O)O)[C@H](c2ccccc2OC)[C@H]1C(=O)Oc1cccc2ccccc12` (racemic) [Compound 1y], the figures for the inhibition constant (Ki) at FABP3 and on FABP7 were 0.69 ± 0.17 µM and 0.67 ± 0.04 µM, respectively. The IC50 at 72 h in [1] came to 26 µM; in data set [2], 29.4 µM. Further, the figures for the IC50 with PC3 cells and in the data set with 22Rv1 cells were 11.4 µM and 10.1 µM, respectively. Moreover, the CI value in the data set on PC3 cells (setting [7]) was found to be 0.0001; with PC3 cells (setting [8]) it was 0.0001; in the data set with PC3 cells (setting [9]), 0.0001; in the data set on PC3 cells (setting [10]), 0.897; in the data set with PC3 cells (setting [11]), 0.009; in the data set with PC3 cells (setting [12]) it was 0.160. In addition, the CI value in the data set with 22Rv1 cells (setting [7]) is 0.707; with 22Rv1 cells (setting [8]) it was 0.396; with 22Rv1 cells (setting [9]) it was 0.003; in the data set with 22Rv1 cells (setting [10]), 3.846; with 22Rv1 cells (setting [11]), 0.003; in the data set on 22Rv1 cells (setting [12]), 0.005. In addition, the Fa value was 0.998 in the data set with PC3 cells (setting [7]); 0.999 with PC3 cells (setting [8]); 0.999 with PC3 cells (setting [9]); 0.786 in the data set with PC3 cells (setting [10]); 0.950 in the data set on PC3 cells (setting [11]); 0.992 with PC3 cells (setting [12]). Besides, the Fa value with 22Rv1 cells (setting [7]) was 0.777; with 22Rv1 cells (setting [8]), 0.899; in the data set on 22Rv1 cells (setting [9]) it was 0.998; with 22Rv1 cells (setting [10]) it was 0.795; in the data set with 22Rv1 cells (setting [11]) it was 0.904; in the data set with 22Rv1 cells (setting [12]) it was 0.999. Also, the Relationship result with PC3 cells (setting [7]), in the data set with PC3 cells (setting [8]), in the data set on PC3 cells (setting [9]), in the data set on PC3 cells (setting [10]), in the data set on PC3 cells (setting [11]) and in the data set on PC3 cells (setting [12]) was “synergistic” throughout. Further, the Relationship entry with 22Rv1 cells (setting [7]), in the data set with 22Rv1 cells (setting [8]), in the data set with 22Rv1 cells (setting [9]), with 22Rv1 cells (setting [11]) and in the data set on 22Rv1 cells (setting [12]) was “synergistic” throughout. The “cytotoxicity of combination with docetaxel or cabazitaxel versus each drug administered independently” value in the data set with PC3 cells and with 22Rv1 cells was “greater cytotoxicity” each time. Also, the tumor growth entry in data set [3] (setting [13]) is on record as “significantly reduced tumor growth”.

Take `O=C(O)[C@@H]1[C@@H](c2ccccc2)[C@H](C(=O)OCc2cccc3ccccc23)[C@H]1c1ccccc1` [Compound 3f, ε-2,4-diphenyl-3-(napthylen1-yl)methoxycarbonylcyclobutane-1-carboxylic acid]: the Ki is 5.08 ± 0.62 µM on FABP5, 7.42 ± 1.38 µM at FABP3 and 0.86 ± 0.04 µM on FABP7. In addition, at FABP5, the “FABP3 Ki/FABP5 Ki” value is 1.5. Besides, the values for the IC50 in [4], in [5] and in data set [6] were 1.6 µM, 0.95 µM and 1.26 µM, respectively.

Regarding `CC(=O)O[C@@]12CO[C@@H]1C[C@H](O)[C@@]1(C)C(=O)[C@H](O)C3=C(C)[C@@H](OC(=O)[C@H](O)[C@@H](NC(=O)OC(C)(C)C)c4ccccc4)C[C@@](O)([C@@H](OC(=O)c4ccccc4)[C@H]21)C3(C)C` [docetaxel, reference compound], the tumor growth result in data set [3] (10 mg/kg, once weekly) was “near complete inhibition of growth”.

Turning to `COc1ccccc1[C@H]1[C@H](C(=O)O)[C@H](c2ccccc2OC)[C@H]1C(=O)OCC1c2ccccc2-c2ccccc21` (racemic) [Compound 1w], the CI value with DU-145 cells (setting [14]) is recorded as 0.449; in the data set with DU-145 cells (setting [15]), 0.300; in the data set on DU-145 cells (setting [16]), 0.194; in the data set on DU-145 cells (setting [17]), 4.473; in the data set on DU-145 cells (setting [18]), 2.697; with DU-145 cells (setting [19]), 0.445. For the same molecule, the CI value in the data set on PC3 cells (setting [7]) is 0.899; in the data set with PC3 cells (setting [8]), 0.942; with PC3 cells (setting [9]) it was 0.373; in the data set on PC3 cells (setting [10]), 0.710; in the data set on PC3 cells (setting [11]), 0.889; with PC3 cells (setting [12]), 0.394. The CI value was found to be 0.731 in the data set on 22Rv1 cells (setting [7]); 0.549 in the data set with 22Rv1 cells (setting [8]); 0.659 in the data set with 22Rv1 cells (setting [9]); 1.673 with 22Rv1 cells (setting [10]); 0.373 in the data set with 22Rv1 cells (setting [11]); 0.267 in the data set with 22Rv1 cells (setting [12]). The Fa value in the data set on DU-145 cells (setting [14]) is given as 0.464; in the data set with DU-145 cells (setting [15]) it was 0.716; with DU-145 cells (setting [16]) it was 0.882; in the data set with DU-145 cells (setting [17]), 0.516; with DU-145 cells (setting [18]), 0.676; with DU-145 cells (setting [19]) it was 0.935. Moreover, the Fa value in the data set with PC3 cells (setting [7]) is 0.379; with PC3 cells (setting [8]) it was 0.420; with PC3 cells (setting [9]) it was 0.853; in the data set on PC3 cells (setting [10]), 0.402; with PC3 cells (setting [11]), 0.432; with PC3 cells (setting [12]), 0.700. Moreover, the Fa value is given as 0.577 in the data set with 22Rv1 cells (setting [7]); 0.728 in the data set on 22Rv1 cells (setting [8]); 0.823 in the data set on 22Rv1 cells (setting [9]); 0.457 in the data set with 22Rv1 cells (setting [10]); 0.744 in the data set on 22Rv1 cells (setting [11]); 0.905 in the data set with 22Rv1 cells (setting [12]). Further, the Relationship result in the data set on DU-145 cells (setting [14]), in the data set on DU-145 cells (setting [15]), in the data set with DU-145 cells (setting [16]), in the data set on DU-145 cells (setting [19]), in the data set on PC3 cells (setting [7]) and in the data set with PC3 cells (setting [8]) was “synergistic” in each case. In addition, the Relationship entry in the data set with PC3 cells (setting [9]), in the data set on PC3 cells (setting [10]), with PC3 cells (setting [11]), with PC3 cells (setting [12]), in the data set on 22Rv1 cells (setting [7]) and in the data set on 22Rv1 cells (setting [8]) was “synergistic” each time. The Relationship entry in the data set on 22Rv1 cells (setting [9]), with 22Rv1 cells (setting [11]) and with 22Rv1 cells (setting [12]) was “synergistic” throughout. For the same molecule, the “cytotoxicity of combination with docetaxel or cabazitaxel versus each drug administered independently” value with DU-145 cells (DU-145 cells), with PC3 cells and with 22Rv1 cells was “greater cytotoxicity” in each case. Further, the half-inhibitory concentration (IC50) is 3.3 µM in the data set with DU-145 cells (Homo sapiens, DU-145, MTT, 72-hour incubation, single agent); 6.3 µM in the data set on PC3 cells; 3.1 µM in the data set with 22Rv1 cells. Further, the Ki at FABP3 amounted to 25.3 ± 4.57 µM; on FABP7, 4.26 ± 0.41 µM. Further, the results for the IC50 at 72 h in data set [1] and in [2] were 20.6 µM and 29.6 µM, respectively. Besides, the “tumor growth, coadministration with docetaxel” value in data set [3] (20 mg/kg ip daily in combination with docetaxel 5 mg/kg weekly, comparable in magnitude to the 10 mg/kg docetaxel dose) is given as “greater inhibition of tumor growth than treatment with each compound alone”. In addition, the tumor growth result in data set [3] (setting [13]) is on record as “significantly reduced tumor growth”.

Regarding `COc1ccccc1[C@@H]1C(C(=O)O)[C@@H](c2ccccc2OC)C1C(=O)Oc1ccccc1-c1ccc2c(c1)OCO2` (mixture of isomers) [Compound 1n, (±)-α-3-[2-(bnzo[d][1,3]dioxol-5-yl)phenoxycarbonyl]-2,4-di (2-methoxyphenyl)cyclobutane-1-carboxylic acid], the Ki at FABP5 was 1.59 ± 0.11 µM; on FABP3 it was 1.28 ± 0.28 µM; on FABP7 it was 0.26 ± 0.09 µM. Besides, the “FABP3 Ki/FABP5 Ki” value on FABP5 is recorded as 0.8. Further, the concentration for half-maximal inhibition (IC50) is 59.4 µM in data set [4], 20.7 µM in data set [5] and 23.5 µM in data set [6].

In the case of `COc1ccccc1[C@H]1[C@H](C(=O)O)[C@H](c2ccccc2OC)[C@@H]1C(=O)Oc1cccc(-c2cccc3c2OCCO3)c1` (racemic) [Compound 2c, (±)-γ-3-((3-(2,3-dihydrobenzo[b][1, 4]dioxin-5-yl)phenoxy)carbonyl)-2,4-di(2-methoxyphenyl)cyclobutane-1-carboxylic acid], the Ki at FABP5 worked out at 1.26 ± 0.12 µM; on FABP3 it was 6.86 ± 0.07 µM; on FABP7, 1.78 ± 0.45 µM. Also, the “FABP3 Ki/FABP5 Ki” value on FABP5 came to 5.4. Besides, the IC50 in data set [4] is 52.1 µM; in [5], 10.1 µM; in data set [6] it was 16.4 µM.
